In publication PMC9551036, “A selective and orally bioavailable VHL-recruiting PROTAC achieves SMARCA2 degradation in vivo” (Nature Communications, 2022):
“And” between values parts separate entries of the source, which are not always exact repeats. Equal values may be shown once.

Tests used:
Caco-2 cell monolayer = test: Bidirectional permeability measurement in Caco-2 cells; type: in vitro ADME
Method: Bidirectional permeability of test compounds across a Caco-2 cell monolayer was measured as described[43] with a modification of preincubation time[44]: Briefly, Caco-2 cells were seeded onto Transwell inserts (#3379, Corning, Wiesbaden, Germany) at a density of 160000 cells/cm^2 and cultured in DMEM (high glucose) containing 10% fetal bovine serum for 14–21 days. Cells were incubated with culture media containing 1 µM test compound for 24 h. […] Samples were taken at different time points for up to 2 h. Test compound in the samples was quantified with LC-MS/MS. To elucidate the role of drug transporter P-gp in the transcellular transport, permeability measurement was performed in the absence and presence of the selective P-gp inhibitor zosuquidar (5 µM final concentration). Apparent permeability coefficients (Papp,AB, Papp,BA) were calculated as follows:1 Papp,AB=Q_AB/C0×s×t 2 Papp,BA=Q_BA/C0×s×t where Q is the amount of compound recovered in the receiver compartment after the incubation time t, C0 the initial compound concentration given to the donor compartment, and s the surface area of the Transwell inserts. Efflux ratio is calculated as the quotient of Papp,BA (mean of duplicate) to Papp,AB (mean of duplicate). […] In addition, Transepithelial electrical resistance (TEER) values were measured for each plate before the permeability assay. All three parameters (efflux of the reference substrates, Papp values of the low permeable compound, and TEER values) were used to ensure the quality of the assays.

Microsomal stability = type: in vitro ADME; conditions: for Mic. Stab. Mouse / Mic. Stab. Mouse QH: mouse liver microsomes; for Mic. Stab. Rat / Mic. Stab. Rat QH: rat liver microsomes
Method: […] Reactions were terminated by addition of acetonitrile and precipitates separated by centrifugation. Compound concentrations in supernatants were measured by HPLC-MS/MS and clearance was calculated from compound half-lives using the well-stirred liver model.

[1] = test system: VCB: PROTAC: SMARCA2^BD ternary complex; test: TR-FRET ternary complex affinity and cooperativity, SMARCA2; type: binding, human; conditions: ratio TR-FRET EC50 / TR-FRET EC50 +VCB measured in the same run, SMARCA2BD
VCB complex = biological target: T1, VCB complex (Homo sapiens, UniProt P40337); test: SPR binary binding to immobilised VCB complex
T1 construct: His6 (TEV site) (N, cleaved yes); made in house
Method: SMARCA4^BD was provided by the Structural Genomics Consortium (SGC), Toronto[32] and SMARCA2^BD and PRM1^BD5 were synthesised by GeneArt then subcloned into pDEST15 vectors (Invitrogen). The VCB complex was expressed and purified as described previously, with the modification that 0.3 mM IPTG was used for induction of expression. […] Both were stored in 20 mM 4-(2-hydroxyethyl)−1-piperazineethanesulfonic acid (HEPES), 150 mM sodium chloride and 1 mM tris(2-carboxyethyl)phosphine (TCEP) pH 7.5. SMARCA2^BD, SMARCA4^BD and PBRM1^BD5 were expressed in Escherichia coli BL21(DE3) as N-terminal GST fusion proteins with a TEV protease cleavage site. Expression and purification of these proteins has been described previously[32],[33]. Starter cultures were grown overnight at 37 °C in 10 mL of Luria-Bertani (LB) medium with ampicillin (100 μg/mL). The starter cultures were diluted (1:100) in Terrific Broth (TB) medium with ampicillin (100 μg/mL) and grown in a shaking incubator at 37 °C to an optical density (OD600) ~1 before the temperature was lowered for induction (to 23 °C for SMARCA2^BD or 18 °C for SMARCA4^BD and PRRM1^BD5). […] Cells were harvested by centrifugation and stored at −80 °C prior to purification. […] The Lysis buffers were as follows: for SMARCA2^BD: 50 mM HEPES, 500 mM sodium chloride, 5% glycerol, 5 mM dithiothreitol (DTT); for SMARCA4^BD: 25 mM HEPES, 0.3 M sodium chloride, 5% glycerol, 10 mM DTT, pH 7.5; for PBRM1^BD5: 25 mM HEPES, 300 mM sodium chloride, 5% glycerol, 10 mM DTT, pH 7.8; in each case supplemented with complete protease inhibitors (Roche). Affinity purification was performed using Glutathione Sepharose 4B (GE Healthcare) in batch mode or on-column. […] For SMARCA2^BD, prior to TEV protease cleavage the eluted GST-tagged BD was first dialysed into desalting buffer (20 mM HEPES, 250 mM sodium chloride, pH 7.0 + 0.5% glycerol). Where TEV cleavage was performed in solution, a second affinity (GST-trap) column purification step was carried out to remove the GST-tag and uncleaved GST-tagged protein. Proteins were further purified by SEC (HiLoad Superdex-75, 16/600) (GE Healthcare) and stored in Storage buffer (for SMARCA2^BD: 20 mM HEPES, 150 mM sodium chloride, pH 7.5; for SMARCA4^BD: 10 mM HEPES, 0.5 M NaCl, 5% glycerol, pH 7.5; for PBRM1^BD5: 20 mM HEPES, 300 mM NaCl, 5 mM DTT, pH 7.8). For AlphaScreen assays, eluted GST-tagged BDs were purified directly by SEC in the respective storage buffers without TEV cleavage. All chromatography purification steps were performed either at room temperature or 4 °C using an ÄKTA FPLC purification system (GE Healthcare) or a plastic Econo-Pac column (Bio-Rad).
SPR data were acquired on Biacore 8K or T200 instruments (Cytiva). Target proteins were immobilised at 25 °C on CM5 chips by amine coupling (EDC/NHS, Cytiva) in HBS-P+ running buffer (pH 7.4), containing 2 mM TCEP. […] The reference surface was subsequently deactivated using 1 M ethanolamine. […] Biotinylated VCB was prepared as previously described[27]: in brief, the complex was mixed 1:1 with EZ-Link NHS–PEG4–biotin (Thermo Scientific) and incubated at room temperature for 1 h. Unreacted NHS-biotin was removed using a PD-10 desalting column (Cytiva) into 20 mM HEPES, pH 7.5, 150 mM sodium chloride and 1 mM DTT. The reference surface was generated by deactivating the EDC/NHS-treated surface with 1 M ethanolamine. All interaction experiments were done at 6 °C in running buffer (20 mM TRIS, pH 8.3, 150 mM potassium chloride, 2 mM magnesium chloride, 2 mM TCEP, 0.005% TWEEN 20, 1% dimethyl sulfoxide). For ternary complex measurements, a sensor chip surface with VCB immobilised was used (preparation as described above). Experiments were run in dual-inject mode with 10 µM SMARCA present during the injection and dissociation phase. Sensorgrams from reference surfaces and blank injections were subtracted from the raw data prior to data analysis using Biacore Insight software.

[2] = binary binding to VCB, mean ± SD

T1 sequence (P40337 54-213): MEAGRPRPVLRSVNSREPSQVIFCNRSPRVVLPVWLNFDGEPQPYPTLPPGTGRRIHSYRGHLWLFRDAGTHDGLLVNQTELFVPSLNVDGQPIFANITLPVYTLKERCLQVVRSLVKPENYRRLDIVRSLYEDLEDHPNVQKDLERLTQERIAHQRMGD
T1 sequence (Q15369 17-112 partner limits assumed): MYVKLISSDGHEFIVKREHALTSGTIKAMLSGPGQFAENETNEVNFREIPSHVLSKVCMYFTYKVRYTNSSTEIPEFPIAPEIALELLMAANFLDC
T1 sequence (Q15370 1-104 partner limits assumed): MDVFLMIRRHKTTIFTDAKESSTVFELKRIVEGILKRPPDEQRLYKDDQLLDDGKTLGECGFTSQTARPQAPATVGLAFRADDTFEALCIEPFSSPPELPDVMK

| Structure (SMILES) | Caco-2 Efflux ratio (Caco-2 cell monolayer; Caco-2) | Caco-2 Pab (Caco-2 cell monolayer; Caco-2) | Caco-2 Pab (Caco-2 cell monolayer; Caco-2, a to b) | Mic. Stab. Human (Microsomal stability; human liver microsomes) | Mic. Stab. Human QH (Microsomal stability; human liver microsomes) | Mic. Stab. Mouse (Microsomal stability) | Mic. Stab. Mouse QH (Microsomal stability) | Mic. Stab. Rat (Microsomal stability) | Mic. Stab. Rat QH (Microsomal stability) | cooperativity α (SMARCA2BD) [1] | Kd (VCB complex; [2]) | Kd (VCB complex; binary, individual replicates) | Modified Caco-2 Efflux ratio (Caco-2 cell monolayer; Modified Caco-2) | Modified Caco-2 Pab (Caco-2 cell monolayer; Modified Caco-2, a to b) | Modified Caco-2 Pab + PGPi (Zosuquidar) (Caco-2 cell monolayer; Modified Caco-2, a to b, + PGPi (Zosuquidar)) | Mic. Stab. Human degradation without NADPH (Microsomal stability; human liver microsomes, without NADPH) |
| --- | --- | --- | --- | --- | --- | --- | --- | --- | --- | --- | --- | --- | --- | --- | --- | --- |
| CN1CCN(c2nc(=O)c3c(Cl)cccc3o2)CC1 [compound 13] | 0.606 and 0.6 | 93 10-6 cm/s | 9.26e-05 cm/s |  |  |  |  |  |  |  |  |  |  |  |  |  |
| Cc1ncsc1-c1ccc(CNC(=O)[C@@H]2C[C@@H](O)CN2C(=O)[C@@H](NC(=O)C2(F)CC2)C(C)(C)C)c(OCCCCN2CCC(c3ccc4c(c3)n(C3CCCC3)c3nc(=O)c5c(Br)cccc5n43)CC2)c1 [compound 23] | 26.136 and 26 | 0.4 10-6 cm/s | 4.01e-07 cm/s | 78 % QH | 78.440% | 42 % QH | 42.090% | <23 % QH | <23.080% | 0.7 ± 0.3 | 16 ± 8 nM | 11.5 nM and 28.1 nM and 12.3 nM and 10.9 nM |  |  |  |  |
| Cc1ncsc1-c1ccc(CNC(=O)[C@@H]2C[C@@H](O)CN2C(=O)[C@@H](NC(=O)C2(F)CC2)C(C)(C)C)c(OCCOCCOCCN2CCC(c3ccc4c(c3)n(C3CCCC3)c3nc(=O)c5c(Br)cccc5n43)CC2)c1 [compound 21] |  | <0.3 10-6 cm/s | <2.83e-07 cm/s | 87 ± 10 % QH | 92.470% and 92.660% and 75.300% | 56 ± 10 % QH | 62.650% and 61.360% and 44.780% | 45 ± 13 % QH | 57.680% and 45.850% and 32.500% | 1.9 ± 0.1 | 21 ± 5 nM | 19.9 nM and 27 nM and 21.6 nM and 15.2 nM |  |  |  |  |
| CN1CCC(c2ccc3c(c2)n(C2CCCC2)c2nc(=O)c4c(Br)cccc4n32)CC1 [compound 3] | 0.8 |  | 2.83e-05 cm/s | <24 % QH | <24.400% | 43 ± 10 % QH | 34.400% and 53.600% and 50.410% | 28 ± 1 % QH | < 23.100% and 27.400% and 28.840% |  |  |  |  |  |  |  |
| Cc1ncsc1-c1ccc([C@H](CCC(C)(C)CCN2CCC(c3ccc4c(c3)n(C3CCCC3)c3nc(=O)c5c(Br)cccc5n43)CC2)NC(=O)[C@@H]2C[C@@H](O)CN2C(=O)[C@@H](NC(=O)C2(F)CC2)C(C)(C)C)cc1 [compound 30] | 9.412 No peak area | <0.3 10-6 cm/s |  | <24 % QH | <24.400 <24.400% | <24 % QH | <24.200% | <23 % QH | <23.100 <23.100% | 5.9 ± 1.9 | 29 ± 8 nM | 38.3 nM and 25.5 nM and 32.6 nM and 21 nM | 7.333 and 12.000 and 10 ± 3 | 4.5 ×10⁻⁶ cm/s and 2.5 ×10⁻⁶ cm/s | 7.2 ×10⁻⁶ cm/s and 8.4 ×10⁻⁶ cm/s |  |
| Cc1ncsc1-c1ccc([C@H](CC[C@H](C)CCN2CCC(c3ccc4c(c3)n(C3CCCC3)c3nc(=O)c5c(Br)cccc5n43)CC2)NC(=O)[C@@H]2C[C@H](O)CN2C(=O)[C@@H](NC(=O)C2(F)CC2)C(C)(C)C)cc1 [compound 12] |  |  |  | <24 % QH | 31.400% | <24 % QH | <24.200 NADPH control off limits % | <23 % QH | <23.100% | 1.1 ± 0.3 | 629 ± 88 nM | 566 nM and 691 nM |  |  |  | 60% |
| Cc1ncsc1-c1ccc([C@H](COCCCN2CCC(c3ccc4c(c3)n(C3CCCC3)c3nc(=O)c5c(Br)cccc5n43)CC2)NC(=O)[C@@H]2C[C@@H](O)CN2C(=O)[C@@H](NC(=O)C2(F)CC2)C(C)(C)C)cc1 [compound 27] | 4.167 and 4 | 5 10-6 cm/s |  | 43 ± 5 % QH | 46.200% and 38.900% | <25 % QH | 24.700% and < 24.200% | <23 % QH | <23.100 <23.100% | 3.3 ± 0.8 | 12 ± 9 nM | 8.51 nM and 25.4 nM and 6.56 nM and 9 nM |  |  |  |  |
| Cc1ncsc1-c1ccc(CNC(=O)[C@@H]2C[C@H](O)CN2C(=O)[C@@H](NC(=O)C2(F)CC2)C(C)(C)C)c(OCCN2CCC(c3ccc4c(c3)n(C3CCCC3)c3nc(=O)c5c(Br)cccc5n43)CC2)c1 [compound 19] |  |  |  | 82 % QH | 81.450% | 68 % QH | 67.500% | 28 % QH | 27.950% | 1.2 ± 0.1 |  |  |  |  |  |  |
| Nc1cccc2c1c(=O)nc1n(C3CCCC3)c3ccccc3n21 [compound 2] | 0.5 |  | 3.7e-05 cm/s |  | 91.040% |  |  |  | 88.170% |  |  |  |  |  |  |  |
| O=c1nc2n(C3CCCC3)c3ccccc3n2c2cccc(Br)c12 [compound 1] | 0.8 |  | 3.09e-05 cm/s |  | 87.940% and 88.090% |  | 86.850% |  | 87.000% and 86.360% |  |  |  |  |  |  |  |
| Cc1ncsc1-c1ccc(C(CCC(C)CCN2CCC(c3ccc4c(c3)n(C3CCCC3)c3nc(=O)c5c(Br)cccc5n43)CC2)NC(=O)C2CC(O)CN2C(=O)C(NC(=O)C2(F)CC2)C(C)(C)C)cc1 (stereo not drawn) [ACBI2] |  |  |  | <24 % QH | <24.400 <24.400 <24.400 <24.400% | <24 % QH | <24.200 <24.200 <24.200 <24.200% | <23 % QH | <23.100 <23.100 <23.100 <23.100% | 4.6 ± 2.2 | 28 ± 35 nM |  |  |  |  |  |
